Reference: ChEMBL document CHEMBL3885881, “DrugMatrix”

Tests used:
[1] = species: Rattus norvegicus; experiment: DrugMatrix - Regimen: Daily Repeat; type: toxicity, organism-based, Sprague-Dawley; parameters: regimen Daily Repeat, gender Male, age 6-8 weeks; details: in vivo, po, 0 mg/kg, […], route oral GAVAGE, dose level Control, time 14 day, vehicle 100 % WATER
[2] = species: Rattus norvegicus; type: toxicity, organism-based, Sprague-Dawley; details: in vivo, po, 0 mg/kg, 24 h, route oral GAVAGE, dose level Control, time 1 day, vehicle 100 % WATER
Description: DrugMatrix - Regimen: Single

c1ccncc1 [PYRIDINE]
ABSOLUTE BASOPHIL ([1]; tissue Blood): 0 CELLS/uL | ABSOLUTE EOSINOPHIL ([1]; tissue Blood): 117.17 CELLS/uL | ABSOLUTE LYMPHOCYTE ([1]; tissue Blood): 12774.17 CELLS/uL | ABSOLUTE MONOCYTE ([1]; tissue Blood): 419 CELLS/uL | ABSOLUTE SEGMENTED NEUTROPHIL ([1]; tissue Blood): 2139.67 CELLS/uL | BASOPHIL ([1]; tissue Blood): 0% | EOSINOPHIL ([1]; tissue Blood): 0.67% | ERYTHROCYTE COUNT ([1]; tissue Blood): 6.61 x10E6/uL | HEMATOCRIT ([1]; tissue Blood): 37.58% | HEMOGLOBIN ([1]; tissue Blood): 13.8 G/DL | LEUKOCYTE COUNT ([1]; tissue Blood): 15.45 x10E3/uL | LYMPHOCYTE ([1]; tissue Blood): 83% | MEAN CORPUSCULAR HEMOGLOBIN ([1]; tissue Blood): 20.87 pg | MEAN CORPUSCULAR HEMOGLOBIN CONCENTRATION ([1]; tissue Blood): 36.72 G/DL | MEAN CORPUSCULAR VOLUME ([1]; tissue Blood): 56.85 fL | MONOCYTE ([1]; tissue Blood): 2.67% | NEUTROPHIL ([1]; tissue Blood): 13.67% | NUCLEATED RED BLOOD CELLS ([1]; tissue Blood): 0 /100WBC | PLATELET COUNT ([1]; tissue Blood): 1108.33 x10E3/uL | ALANINE AMINOTRANSFERASE ([1]; tissue Plasma): 56.83 u/L | ALBUMIN ([1]; tissue Plasma): 4.18 G/DL | ALKALINE PHOSPHATASE ([1]; tissue Plasma): 354.33 u/L | ASPARTATE AMINOTRANSFERASE ([1]; tissue Plasma): 93.33 u/L | BLOOD UREA NITROGEN ([1]; tissue Plasma): 16.67 mg/dL | CARBON DIOXIDE ([1]; tissue Plasma): 27.83 mmol/L | CHLORIDE ([1]; tissue Plasma): 102.17 MEQ/L | CHOLESTEROL ([1]; tissue Plasma): 62.33 mg/dL | CREATININE ([1]; tissue Plasma): 0.2 mg/dL | GLUCOSE ([1]; tissue Plasma): 137 mg/dL | LACTATE DEHYDROGENASE ([1]; tissue Plasma): 407 u/L | LIPASE ([1]; tissue Plasma): 10.83 u/L | PHOSPHORUS ([1]; tissue Plasma): 11.45 mg/dL | POTASSIUM ([1]; tissue Plasma): 6.51 MEQ/L | SODIUM ([1]; tissue Plasma): 145.57 MEQ/L | TOTAL BILIRUBIN ([1]; tissue Plasma): 0.2 mg/dL | TOTAL PROTEIN ([1]; tissue Plasma): 6.3 G/DL | URIC ACID ([1]; tissue Plasma): 1.93 mg/dL | ABSOLUTE EOSINOPHIL ([2]; tissue Blood): 91.83 CELLS/uL | ABSOLUTE LYMPHOCYTE ([2]; tissue Blood): 13862.33 CELLS/uL | ABSOLUTE MONOCYTE ([2]; tissue Blood): 437.83 CELLS/uL | ABSOLUTE SEGMENTED NEUTROPHIL ([2]; tissue Blood): 1358 CELLS/uL | BASOPHIL ([2]; tissue Blood): 0% | EOSINOPHIL ([2]; tissue Blood): 0.5% | ERYTHROCYTE COUNT ([2]; tissue Blood): 5.12 x10E6/uL | HEMATOCRIT ([2]; tissue Blood): 31.77% | HEMOGLOBIN ([2]; tissue Blood): 11.8 G/DL | LEUKOCYTE COUNT ([2]; tissue Blood): 15.75 x10E3/uL | LYMPHOCYTE ([2]; tissue Blood): 88.33% | MEAN CORPUSCULAR HEMOGLOBIN ([2]; tissue Blood): 23.07 pg | MEAN CORPUSCULAR HEMOGLOBIN CONCENTRATION ([2]; tissue Blood): 37.17 G/DL | MEAN CORPUSCULAR VOLUME ([2]; tissue Blood): 62.15 fL | MONOCYTE ([2]; tissue Blood): 2.67% | NEUTROPHIL ([2]; tissue Blood): 8.5% | NUCLEATED RED BLOOD CELLS ([2]; tissue Blood): 0 /100WBC | PLATELET COUNT ([2]; tissue Blood): 1113.83 x10E3/uL | ALANINE AMINOTRANSFERASE ([2]; tissue Plasma): 45.5 u/L | ALBUMIN ([2]; tissue Plasma): 4.07 G/DL | ALKALINE PHOSPHATASE ([2]; tissue Plasma): 343.83 u/L | ASPARTATE AMINOTRANSFERASE ([2]; tissue Plasma): 70.67 u/L | BLOOD UREA NITROGEN ([2]; tissue Plasma): 13 mg/dL | CARBON DIOXIDE ([2]; tissue Plasma): 33 mmol/L | CHLORIDE ([2]; tissue Plasma): 100.33 MEQ/L | CHOLESTEROL ([2]; tissue Plasma): 76.67 mg/dL | CREATININE ([2]; tissue Plasma): 0.12 mg/dL | GLUCOSE ([2]; tissue Plasma): 148.67 mg/dL | LACTATE DEHYDROGENASE ([2]; tissue Plasma): 116.67 u/L | LIPASE ([2]; tissue Plasma): 8 u/L | PHOSPHORUS ([2]; tissue Plasma): 12.58 mg/dL | POTASSIUM ([2]; tissue Plasma): 6.33 MEQ/L | SODIUM ([2]; tissue Plasma): 142.88 MEQ/L | TOTAL BILIRUBIN ([2]; tissue Plasma): 0.18 mg/dL | TOTAL PROTEIN ([2]; tissue Plasma): 5.77 G/DL | URIC ACID ([2]; tissue Plasma): 1.27 mg/dL
